Measurements reported in PubChem BioAssay AID1845210 (Molecular Pharmacology Branch, DTP, NCI, 2023).
pIC50: −log10 of the molar value.

System: NCI-H226 complex tumor spheroids, viability
Experiment: Anticancer human tumor NCI-H226 cell line growth inhibition;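 note: spheroids exposed to compound for 7 days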;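 for viability, T/C: 100% = DMSO vehicle control viability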
Conditions: for pIC50: curve of first compound; for viability, T/C: stronger effect = lower value
Source text: Multicellular complex tumor spheroid response to DNA repair inhibitors in combination with DNA-damaging drugs
This study explores the anticancer activities of DNA-damaging drugs and inhibitors of DNA damage repair, both as single agents and in combinations. Complex tumor spheroids comprised of malignant cells, endothelial cells and mesenchymal stem cells served as an in vitro model for human solid tumors. This model system incorporates physiologically relevant features and patient-derived or established malignant cell lines with clinically relevant genetic alterations from many tumor types. Twenty-six patient-derived or established malignant cell lines were evaluated representing sarcoma, melanoma, small cell lung cancer (SCLC), non-small cell lung cancer (NSCLC), as well as bladder, ovarian and pancreatic cancers. The concentration ranges selected for each drug and investigational agent were based upon clinically achievable concentrations if the clinical Cmax of the agent was known.
Compounds. The drugs and compounds olaparib (NSC753686), talazoparib (NSC767125), berzosertib (NSC777718), elimusertib (NSC800525), nedisertib (NSC802822), VX-984 (NSC792969), AZD-1390 (NSC803789), temozolomide (NSC362856), topotecan (NSC609699), trabectedin (NSC813783), staurosporine (NSC755774), and gemcitabine (NSC613327) were obtained from the National Cancer Institute (NCI) Developmental Therapeutics Program Chemical Repository. The FDA-approved anticancer drug set is available from the Developmental Therapeutics Program at https://dtp.cancer.gov/organization/dscb/obtaining/available_plates.htm. […] The stock solutions were prepared in dimethyl sulfoxide (DMSO, Sigma-Aldrich, St. Louis, MO, cat. D2650) at 400-fold the tested concentration and stored at -70 degrees C. Prior to their use, the stock solutions were diluted in fresh medium and the final DMSO concentration in the assay was 0.25% (v/v). All drugs and investigational agents were tested over a range starting from a high concentration at or near the clinical Cmax and decreasing in half-log increments. If the clinical Cmax for an agent had not been determined, the highest concentration tested was 10 microM.
Cell Lines. The patient-derived cancer cell (PDC) lines: 156681-154-R-J1-PDC, 283228-195-R-J1-PDC, 287954-098-R-J1-PDC, 292921-168-R-J2-PDC, 349418-098-R-PDC, 425362-245-T-J1-PDC, 556581-035-R-J1-PDC, and BL0293-F563-PDC were received from the NCI Patient-Derived Models Repository (PDMR, https://pdmr.cancer.gov). The established cell lines HS-SY-2 (RRID:CVCL_8719), MPNST, and SYO-1 (RRID:CVCL_7146) were obtained from the Sloan Kettering Institute. The alveolar soft parts sarcoma cell line ASPS-1 (RRID:CVCL_S738) was established at the NCI and grown from internal seed stocks. The following established cell lines were purchased from the American Type Culture Collection (ATCC, Manassas, VA): G-401 (ATCC, cat. CRL-1441, RRID:CVCL_0270), SW982 (ATCC, cat. HTB-93, RRID:CVCL_1734), VA-ES-BJ (ATCC, cat. CRL-2138, RRID:CVCL_1785), NCI-H719 (ATCC, cat. CRL-5837, RRID:CVCL_1582), NCI-H196 (ATCC, cat. CRL-5823, RRID:CVCL_1509), NCI-H841 (ATCC, cat. CRL-5845, RRID:CVCL_1595), NCI-H1618 (ATCC, cat. CRL-5879, RRID:CVCL_1480), NCI-H1876 (ATCC, cat. CRL-5902, RRID:CVCL_1503), DMS 114 (ATCC, cat. CRL-2066; RRID:CVCL_1174), NCI-H211 (ATCC, cat. CRL-5824; RRID:CVCL_1529), and SW 1271 (ATCC, cat. CRL-2177, RRID:CVCL_1716). The small cell lung cancer cell line COR-L88 was purchased from Sigma-Aldrich (cat. 92031917-1VL, RRID:CVCL_1141). The non-small cell lung cancer cell lines NCI-H226 (RRID:CVCL_1544) and NCI-H322M (RRID:CVCL_1557) were established at the NCI and grown from internal seed stocks. Pooled donor human umbilical vein endothelial cells (HUVEC, Lonza, cat. CC-2519) and human mesenchymal stem cells (hMSC, Lonza, cat. PT-2501) were purchased from Lonza (Walkersville, MD).
Cell Culture. All cells were maintained in an incubator at 37 degrees C and 5% CO2 with 95% humidity. […]

[1] = second compound 0.003 µM, first compound 0.00949 µM
[2] = second compound 0.003 µM, first compound 0.03 µM
[3] = second compound 0.003 µM, first compound 0.0949 µM
[4] = second compound 0.003 µM, first compound 0.3 µM
[5] = second compound 0.003 µM, first compound 0.949 µM
[6] = second compound 0.003 µM, first compound 3 µM
[7] = second compound 0.00949 µM, first compound 0.00949 µM
[8] = second compound 0.00949 µM, first compound 0.03 µM
[9] = second compound 0.00949 µM, first compound 0.0949 µM
[10] = second compound 0.00949 µM, first compound 0.3 µM
[11] = second compound 0.00949 µM, first compound 0.949 µM
[12] = second compound 0.00949 µM, first compound 3 µM
[13] = second compound 0.03 µM, first compound 0.00949 µM
[14] = second compound 0.03 µM, first compound 0.03 µM
[15] = second compound 0.03 µM, first compound 0.0949 µM
[16] = second compound 0.03 µM, first compound 0.3 µM
[17] = second compound 0.03 µM, first compound 0.949 µM
[18] = second compound 0.03 µM, first compound 3 µM
[19] = second compound 0.0949 µM, first compound 0.00949 µM
[20] = second compound 0.0949 µM, first compound 0.03 µM
[21] = second compound 0.0949 µM, first compound 0.0949 µM
[22] = second compound 0.0949 µM, first compound 0.3 µM
[23] = second compound 0.0949 µM, first compound 0.949 µM
[24] = second compound 0.0949 µM, first compound 3 µM
[25] = second compound 0.3 µM, first compound 0.00949 µM
[26] = second compound 0.3 µM, first compound 0.03 µM
[27] = second compound 0.3 µM, first compound 0.0949 µM
[28] = second compound 0.3 µM, first compound 0.3 µM
[29] = second compound 0.3 µM, first compound 0.949 µM
[30] = second compound 0.3 µM, first compound 3 µM

Row | SMILES | pIC50 (second compound 0.003 µM) | pIC50 (second compound 0.00949 µM) | pIC50 (second compound 0.03 µM) | pIC50 (second compound 0.0949 µM) | pIC50 (second compound 0.3 µM) | viability, T/C [1] | viability, T/C [2] | viability, T/C [3] | viability, T/C [4] | viability, T/C [5] | viability, T/C [6] | viability, T/C [7] | viability, T/C [8] | viability, T/C [9] | viability, T/C [10] | viability, T/C [11] | viability, T/C [12] | viability, T/C [13] | viability, T/C [14] | viability, T/C [15] | also measured
1 | CNCc1ccc(-c2cc(-c3nc(-c4ccc(S(=O)(=O)C(C)C)cc4)cnc3N)on2)cc1 + CC[C@@]1(O)C(=O)OCc2c1cc1n(c2=O)Cc2cc3c(CN(C)C)c(O)ccc3nc2-1 | 5.77 | 5.81 | 5.77 | 5.78 | 5.88 | 111% | 116% | 125% | 130% | 89.8% | 12.1% | 99.1% | 112% | 108% | 107% | 87% | 1.35% | 90.5% | 109% | 115% | viability, T/C [16]: 123%; viability, T/C [17]: 97.4%; viability, T/C [18]: 3.86%; viability, T/C [19]: 90.7%; viability, T/C [20]: 105%; viability, T/C [21]: 104%; viability, T/C [22]: 110%; viability, T/C [23]: 96.7%; viability, T/C [24]: 1.91%; viability, T/C [25]: 70.1%; viability, T/C [26]: 76.7%; viability, T/C [27]: 92.8%; viability, T/C [28]: 101%; viability, T/C [29]: 69.5%; viability, T/C [30]: 0.93%
2 | Cc1sc2c(c1C)C(c1ccc(Cl)cc1)=NC(CC(=O)Nc1ccc(O)cc1)c1nnc(C)n1-2 (stereo not given) + CC[C@@]1(O)C(=O)OCc2c1cc1n(c2=O)Cc2cc3c(CN(C)C)c(O)ccc3nc2-1 | 5.84 | 5.89 | 6.37 | 7.03 | > 8.02 | 71.9% | 68.5% | 65.8% | 60.2% | 54% | 43.9% | 69.9% | 62% | 68.9% | 61% | 50% | 43% | 63.9% | 57.9% | 53.9% | viability, T/C [16]: 54.2%; viability, T/C [17]: 45.4%; viability, T/C [18]: 44.6%; viability, T/C [19]: 71.3%; viability, T/C [20]: 52.9%; viability, T/C [21]: 50.5%; viability, T/C [22]: 54.9%; viability, T/C [23]: 43%; viability, T/C [24]: 41.6%; viability, T/C [25]: 50.3%; viability, T/C [26]: 45.8%; viability, T/C [27]: 43.6%; viability, T/C [28]: 44.4%; viability, T/C [29]: 37%; viability, T/C [30]: 27.1%
3 | Cn1ncnc1[C@H]1c2n[nH]c(=O)c3cc(F)cc(c23)N[C@@H]1c1ccc(F)cc1 + CC[C@@]1(O)C(=O)OCc2c1cc1n(c2=O)Cc2cc3c(CN(C)C)c(O)ccc3nc2-1 | < 5.52 | < 5.52 | < 5.52 | < 5.52 | < 5.52 | 102% | 87.8% | 88.7% | 82.4% | 93.7% | 98.7% | 84.4% | 106% | 88.3% | 95.2% | 82.6% | 91.6% | 89.4% | 80.1% | 92.2% | viability, T/C [16]: 79.9%; viability, T/C [17]: 91.1%; viability, T/C [18]: 91.9%; viability, T/C [19]: 70.8%; viability, T/C [20]: 73.5%; viability, T/C [21]: 66.1%; viability, T/C [22]: 72.2%; viability, T/C [23]: 69.2%; viability, T/C [24]: 77.8%; viability, T/C [25]: 60.5%; viability, T/C [26]: 59%; viability, T/C [27]: 58.9%; viability, T/C [28]: 56.5%; viability, T/C [29]: 59.2%; viability, T/C [30]: 66.9%
